{
  "source": "patent US8357733B2",
  "about": "“Processes for making silane, hydrophobated silica, silica masterbatch and rubber products” (Industrias Negromex, S.A. de C.V., priority 2008, dated 2013)",
  "key": {"[1]": {"test": "Solubility of silanes in water-isopropanol mixtures", "type": "physicochemical", "settings": "for Soluble?: water-isopropanol"}, "[2]": {"test": "Solubility of silanes in water-isopropanol mixtures", "type": "physicochemical", "settings": "for Water solubility: comparison methoxysilane vs ethoxysilane, see Table 4; for Soluble?: water-isopropanol, 96.0 % water (wt.)", "protocol": "An aqueous solution of silane was prepared by charging to a vessel 4 grams of isopropanol, 0.7 grams of acetic acid and then 1.57 grams (4% by wt silica) of mercapto Propyl trimethoxysilane (Silquest A189). The mixture was then stirred vigorously at room temperature while 96 grams of water was slowly added. The mixture was then stirred for a further 15 minutes until the solution cleared.\nThe following experiments were conducted to examine the solubility of various silane coupling agents."}},
  "data": [
    {"smiles": "CO[Si](CCCS)(OC)OC", "note": "[MPTMS, mercaptopropyl trimethoxysilane]", "values": [
      {"measurement": "Soluble?", "setting": "[1]; 63.2 % water (wt.), pH 3.5-4.0", "result": "Yes"},
      {"measurement": "Water solubility", "setting": "[2]", "result": "soluble"},
      {"measurement": "Soluble?", "setting": "[2]; pH 3.5-4.0", "result": "soluble"},
      {"measurement": "Soluble?", "setting": "[2]; pH 3.5-4.0, listed as MPTMS (A189)", "result": "Yes"}
    ]},
    {"smiles": "CCO[Si](CCCSSCCC[Si](OCC)(OCC)OCC)(OCC)OCC", "note": "[TESPD, bis-(3-triethoxysilylpropyl)-disulfide]", "values": [
      {"measurement": "Soluble?", "setting": "[1]; 22.2 % water (wt.), pH 3.8", "result": "soluble and Yes"},
      {"measurement": "Soluble?", "setting": "[1]; 27.8 % water (wt.), pH 3.5", "result": "insoluble and No"},
      {"measurement": "Solubility in the water-alcohol mixture", "setting": "[2]; procedure of comparative example 1A (4 grams isopropanol, 0.7 grams acetic acid, 96 grams water), high purity TESPD", "result": "not soluble"}
    ]},
    {"smiles": "CO[Si](CCCSSCCC[Si](OC)(OC)OC)(OC)OC", "note": "[TMSPD, bis-(3-trimethoxysilylpropyl)-disulfide]", "values": [
      {"measurement": "Solubility in 70/30 water/isopropanol mixture", "setting": "[1]; TMSPD prepared using the Pletka process, no unusual precautions to purify the methanol", "result": "insoluble"},
      {"measurement": "Soluble?", "setting": "[2]; pH 4.1", "result": "soluble"},
      {"measurement": "Soluble?", "setting": "[2]; pH 4.1, listed as TMSPD (Present invention)", "result": "Yes"}
    ]},
    {"smiles": "CCO[Si](CCCS)(OCC)OCC", "note": "[MPTES, mercaptopropyltriethoxysilane]", "values": [
      {"measurement": "Soluble?", "setting": "[1]; 63.2 % water (wt.), pH 3.5-4.0", "result": "insoluble and No"},
      {"measurement": "Water solubility", "setting": "[2]", "result": "insoluble"}
    ]}
  ]
}
